In US20060116316A1, “Heterocyclic inhibitors of IRES-mediated translation and methods of use thereof” (priority 2004, published 2006):
Where a SMILES comes first, the peptide text is derived from it.

Test system: HCV IRES
Assay: HCV IRES reporter FACS assay (GFP expression ratio, intein-expressed cyclic peptides)
Assay type: cell-based, Hepatitis C virus
Details: ratio at least 1.20 = significant activity
From the text: [The source words this procedure for another variant and says it was used here with some conditions changed.] Cells producing libraries of cyclic 3-mers and 4-mers (i.e., libraries of cyclic peptides that contain 3 or 4 amino acid residues) were constructed using methods identical to those of Kinsella et al (J Biol. Chem. 2002 277:37512-8), except different oligonucleotides were used for library construction. Clones from this library were screened in an assay shown in FIG. 2 to identify IRES-inhibitory compounds.
In summary, separate cyclic 3-mer and cyclic 4-mer libraries were constructed such that each peptide of the library contained a fixed Ser, Thr or Cys residue (at position 1) and the remaining residues were randomized. For library construction, degenerate oligonucleotides of sequence 5′-[…](AGC/ACC/TGC)(NNK)2 or 3 TGCATCAGCGGCGACAG-3′ were annealed to the primer 5′-[…]-3′ and extended using the Expand PCR kit (Roche Molecular Biochemicals). The double-stranded DNA insert was digested and inserted into the BclI/DrdI sites of DnaBO-e-BFP (ACUC). The plasmid libraries were electroporated into ElectroMAX DH 10B competent E. coli (Invitrogen) for amplification on LB+amp agar medium. […] Expression of the intein is detected by detecting BFP expression. Expression of the intein (and the cyclic peptide produced by the intein) is suppressible by addition of exogenous doxycycline. The amino acid sequence of the junctions of the intein scaffold used in making the 3-mer library is Val-His-Asn-X3 or 4-Cys-Ile-Ser, where X3 or 4 are three or four contiguous amino acids.
Infectious retroviral particles were produced by transfection of 15 µg of each library (as described in Swift et al, (1999). Current Protocols in Immunology Vol. 10.17C, pp. 1-17, Freeman, N.Y.) into approximately 5×10^6 Phoenix-A packaging cells. Each resulting library of retroviral particles was then used to infect 5×10^6 BJAB-S3A11 reporter cells and a FACS based selection was carried out to isolate cells with reduced HCV-IRES reporter output.
In detail, referring to FIG. 2, the cells used in the assay contained an IRES-dependent reporter system. […]. Also present in the cells is a control reporter system for assaying the activity of 5′ cap-dependent translation (the mechanism by which most cellular proteins are normally translated). The control reporter system contains a CMV promoter that drives the transcription of an RNA containing 5′ cap-dependent UTR, operably linked to an RNA encoding RFP (red fluorescent protein). Translation of RFP is dependent on the activity of the 5′ cap-dependent UTR.
Cells containing both the cyclic compound library and the reporter systems described above were first screened for survival upon exposure to diptheria toxin, and then screened by FACS to identify cells that had reduced GFP expression, as compared to RFP expression. Cells were expanded and replica-plated and grown in the presence or absence of dox (100 ng/ml) for four days. Plates were stimulated with IL-4 and GFP expression (relative to RFP) was monitored by flow cytometry. The IRES-inhibitory activity of a peptide is evaluated by calculating the ratio of the geometric mean of GFP expression of peptide positive cells (“peptide pos+” cells i.e., cells not contacted with dox) to the geometric mean of GFP expression of peptide negative cells (“peptide pos−” cells i.e., cells contacted with dox).
Cyclic peptides assigned higher scores have a greater IRES-inhibitory activity.
The number shown in parentheses after each of the amino acid sequences is the IRES-inhibitory activity ratio, as discussed above.

[1] = BJAB-S3A11 reporter cells, +/- dox 100 ng/ml four days, library intein junction Val-His-Asn-X1X2X3-Cys-Ile-Ser

CCC(C)[C@@H]1NC(=O)[C@H](Cc2c[nH]c3ccccc23)NC(=O)[C@H](CO)NC1=O (stereo partly shown) [cyclo-SWI, cyclo[SWI]]
IRES-inhibitory activity ratio (geometric mean GFP expression, peptide positive cells / peptide negative cells) [1]: 1.36

O=C1N[C@@H](Cc2c[nH]c3ccccc23)C(=O)N[C@@H](Cc2ccccc2)C(=O)N[C@H]1CO [cyclo-SWF, cyclo[SWF]] (cyclo(Phe-Ser-Trp))
IRES-inhibitory activity ratio (geometric mean GFP expression, peptide positive cells / peptide negative cells) [1]: 1.33

O=C1CNC(=O)[C@H](CO)NC(=O)[C@H](Cc2c[nH]c3ccccc23)N1 [cyclo-SGW, cyclo[SGW]] (cyclo(Gly-Trp-Ser))
IRES-inhibitory activity ratio (geometric mean GFP expression, peptide positive cells / peptide negative cells) (3-mers from mutant intein scaffold, junction Val-His-Asn-X1X2X3-Trp-Ile-Ser): 1.94

CCC(C)[C@@H]1NC(=O)[C@H](CO)NC(=O)[C@H](C(C)C)NC1=O (stereo partly shown) [cyclo-SIV, cyclo[SIV]]
IRES-inhibitory activity ratio (geometric mean GFP expression, peptide positive cells / peptide negative cells) [1]: 1.4

O=C1N[C@@H](Cc2ccc(O)cc2)C(=O)N[C@@H](Cc2c[nH]c3ccccc23)C(=O)N[C@H]1CO [cyclo-SYW, cyclo[SYW]] (cyclo(Ser-Tyr-Trp))
IRES-inhibitory activity ratio (geometric mean GFP expression, peptide positive cells / peptide negative cells) [1]: 1.64

NCCCC[C@@H]1NC(=O)[C@H](Cc2ccccc2)NC(=O)[C@H](Cc2c[nH]c3ccccc23)NC(=O)[C@H](CO)NC1=O [cyclo-SWFK, cyclo[SWFK]] (cyclo(FKSW))
IRES-inhibitory activity ratio (geometric mean GFP expression, peptide positive cells / peptide negative cells) (4-mers from mutant intein scaffold, junction Val-His-Asn-X1X2X3X4-Cys-Ser): 1.58

CCC(C)[C@@H]1NC(=O)[C@H](C(C)C)NC(=O)[C@H](CO)NC1=O (stereo partly shown) [cyclo-SVI, cyclo[SVI]]
IRES-inhibitory activity ratio (geometric mean GFP expression, peptide positive cells / peptide negative cells) [1]: 1.28
